Measured values as given in ChEMBL document CHEMBL1201862, “PubChem BioAssay data set” (2004).
The source made the active and inactive calls.

Experiments:
[1] = molecular target: Peroxisome proliferator-activated receptor gamma/Nuclear receptor coactivator 1 (Homo sapiens, UniProt P37231); experiment: (§1) TR-FRET dose response biochemical High Throughput Screening assay for agonists of the steroid receptor coactivator 1 (SRC-1) recruitment by the peroxisome proliferator-activated receptor gamma (PPAR gamma): non-selective agonists. [Related pubchem assays (depositor defined):AID1300, AID1808, AID504735, AID631]; format: protein assay
Chain of Peroxisome proliferator-activated receptor gamma/Nuclear receptor coactivator 1 (P37231 whole entry): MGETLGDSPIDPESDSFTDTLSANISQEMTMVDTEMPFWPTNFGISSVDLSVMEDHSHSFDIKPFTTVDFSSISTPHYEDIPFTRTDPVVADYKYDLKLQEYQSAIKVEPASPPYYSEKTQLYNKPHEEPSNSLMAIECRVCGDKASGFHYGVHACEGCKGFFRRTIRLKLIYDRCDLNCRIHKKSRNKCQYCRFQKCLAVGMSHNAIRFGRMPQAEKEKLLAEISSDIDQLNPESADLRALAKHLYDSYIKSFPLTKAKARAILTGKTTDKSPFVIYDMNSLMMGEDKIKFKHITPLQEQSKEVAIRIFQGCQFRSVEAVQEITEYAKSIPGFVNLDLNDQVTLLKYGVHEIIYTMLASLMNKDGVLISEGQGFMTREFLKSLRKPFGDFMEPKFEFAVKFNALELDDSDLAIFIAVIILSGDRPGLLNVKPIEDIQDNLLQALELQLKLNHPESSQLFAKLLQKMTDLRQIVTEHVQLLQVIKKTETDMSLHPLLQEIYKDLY
Chain of Peroxisome proliferator-activated receptor gamma/Nuclear receptor coactivator 1 (Q15788 whole entry, further chain): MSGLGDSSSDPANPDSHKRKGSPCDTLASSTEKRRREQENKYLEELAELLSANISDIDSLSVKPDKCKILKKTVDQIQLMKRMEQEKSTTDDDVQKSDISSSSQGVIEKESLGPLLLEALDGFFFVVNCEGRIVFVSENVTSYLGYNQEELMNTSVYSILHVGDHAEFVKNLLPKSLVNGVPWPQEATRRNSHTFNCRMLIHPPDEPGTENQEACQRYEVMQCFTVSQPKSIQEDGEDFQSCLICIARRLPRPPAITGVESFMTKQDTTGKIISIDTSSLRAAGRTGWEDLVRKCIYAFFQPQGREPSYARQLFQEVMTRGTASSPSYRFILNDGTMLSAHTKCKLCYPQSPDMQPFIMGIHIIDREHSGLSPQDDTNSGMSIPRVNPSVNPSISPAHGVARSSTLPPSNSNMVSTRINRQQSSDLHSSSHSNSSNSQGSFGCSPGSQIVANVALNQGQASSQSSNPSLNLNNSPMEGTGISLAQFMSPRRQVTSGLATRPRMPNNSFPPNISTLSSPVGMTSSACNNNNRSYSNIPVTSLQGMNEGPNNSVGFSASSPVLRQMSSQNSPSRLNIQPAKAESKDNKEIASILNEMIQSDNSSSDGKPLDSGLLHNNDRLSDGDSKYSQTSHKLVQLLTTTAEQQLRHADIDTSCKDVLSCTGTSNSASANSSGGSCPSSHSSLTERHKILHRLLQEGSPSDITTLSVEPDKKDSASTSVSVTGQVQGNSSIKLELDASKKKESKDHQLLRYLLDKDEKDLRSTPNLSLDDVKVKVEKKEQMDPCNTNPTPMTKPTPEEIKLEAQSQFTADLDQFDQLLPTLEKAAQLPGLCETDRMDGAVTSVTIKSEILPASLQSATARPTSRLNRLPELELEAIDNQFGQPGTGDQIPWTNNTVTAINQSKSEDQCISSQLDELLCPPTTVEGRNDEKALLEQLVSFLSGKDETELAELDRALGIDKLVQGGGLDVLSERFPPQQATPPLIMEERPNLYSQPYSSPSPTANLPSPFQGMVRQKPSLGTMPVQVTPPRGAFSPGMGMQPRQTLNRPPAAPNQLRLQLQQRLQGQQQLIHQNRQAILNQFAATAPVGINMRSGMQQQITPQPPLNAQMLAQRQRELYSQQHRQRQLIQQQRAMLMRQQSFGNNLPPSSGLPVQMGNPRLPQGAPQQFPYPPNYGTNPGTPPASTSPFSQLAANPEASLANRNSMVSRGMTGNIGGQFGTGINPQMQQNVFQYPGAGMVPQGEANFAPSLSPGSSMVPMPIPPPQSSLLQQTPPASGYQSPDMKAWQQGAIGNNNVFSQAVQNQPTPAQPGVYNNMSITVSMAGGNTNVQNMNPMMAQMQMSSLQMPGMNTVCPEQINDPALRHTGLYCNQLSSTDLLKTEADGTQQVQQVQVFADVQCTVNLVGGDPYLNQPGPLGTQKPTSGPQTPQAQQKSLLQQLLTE

[2] = molecular target: Peroxisome proliferator-activated receptor gamma/Nuclear receptor coactivator 3 (Homo sapiens, UniProt P37231); experiment: as §1, with “3 (SRC-3)” for “1 (SRC-1)”, “assays: 1301 (Confirmation screen.), 1048 (Primary screen.)]” for “assays (depositor defined):AID1300, AID1808, AID504735, AID631]”; format: functional
Chain of Peroxisome proliferator-activated receptor gamma/Nuclear receptor coactivator 3 (P37231 whole entry): as the sequence (P37231 whole entry) above
Chain of Peroxisome proliferator-activated receptor gamma/Nuclear receptor coactivator 3 (Q9Y6Q9 whole entry, further chain): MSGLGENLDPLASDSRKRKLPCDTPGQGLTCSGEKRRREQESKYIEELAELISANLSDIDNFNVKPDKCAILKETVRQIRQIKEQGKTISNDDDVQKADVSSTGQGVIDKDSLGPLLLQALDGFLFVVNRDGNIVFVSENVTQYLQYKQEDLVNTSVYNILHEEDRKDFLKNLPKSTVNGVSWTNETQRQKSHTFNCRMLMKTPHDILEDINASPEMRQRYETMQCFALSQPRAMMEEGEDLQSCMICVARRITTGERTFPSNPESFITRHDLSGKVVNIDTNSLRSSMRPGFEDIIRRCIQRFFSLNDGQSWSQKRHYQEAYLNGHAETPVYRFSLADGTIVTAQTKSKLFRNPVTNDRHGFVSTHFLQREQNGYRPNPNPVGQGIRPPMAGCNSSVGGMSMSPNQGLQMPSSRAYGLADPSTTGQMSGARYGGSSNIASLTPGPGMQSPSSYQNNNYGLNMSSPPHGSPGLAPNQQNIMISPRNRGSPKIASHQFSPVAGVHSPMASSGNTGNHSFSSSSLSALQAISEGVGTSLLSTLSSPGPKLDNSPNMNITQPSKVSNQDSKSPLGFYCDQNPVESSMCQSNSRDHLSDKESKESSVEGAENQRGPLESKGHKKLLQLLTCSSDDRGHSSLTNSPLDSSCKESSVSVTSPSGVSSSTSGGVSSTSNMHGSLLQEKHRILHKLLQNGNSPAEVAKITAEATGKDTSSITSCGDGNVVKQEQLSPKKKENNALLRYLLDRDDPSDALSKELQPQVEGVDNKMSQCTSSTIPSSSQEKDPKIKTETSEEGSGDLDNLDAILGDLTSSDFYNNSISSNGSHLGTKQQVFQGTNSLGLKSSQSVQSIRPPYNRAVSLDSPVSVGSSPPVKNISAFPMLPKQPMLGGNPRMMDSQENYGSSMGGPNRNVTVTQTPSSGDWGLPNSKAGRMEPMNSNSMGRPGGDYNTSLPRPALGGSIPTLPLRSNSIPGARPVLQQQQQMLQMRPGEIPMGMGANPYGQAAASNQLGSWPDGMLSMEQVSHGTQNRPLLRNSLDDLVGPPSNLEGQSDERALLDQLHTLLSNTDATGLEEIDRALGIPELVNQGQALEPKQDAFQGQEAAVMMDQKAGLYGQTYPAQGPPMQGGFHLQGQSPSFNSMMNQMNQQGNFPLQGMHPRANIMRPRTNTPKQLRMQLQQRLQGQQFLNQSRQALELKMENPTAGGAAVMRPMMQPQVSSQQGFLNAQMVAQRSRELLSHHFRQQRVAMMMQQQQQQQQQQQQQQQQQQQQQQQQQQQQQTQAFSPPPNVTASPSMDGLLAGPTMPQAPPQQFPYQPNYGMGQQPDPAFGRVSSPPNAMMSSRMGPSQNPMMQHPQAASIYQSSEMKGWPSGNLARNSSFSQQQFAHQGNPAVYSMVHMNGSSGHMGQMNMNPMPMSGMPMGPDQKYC

[3] = molecular target: Peroxisome proliferator-activated receptor gamma/Nuclear receptor coactivator 2 (Homo sapiens, UniProt P37231); experiment: TR-FRET dose response biochemical High Throughput Screening assay for agonists of the steroid receptor coactivator 2 (SRC-2) recruitment by the peroxisome proliferator-activated receptor gamma (PPAR gamma): non-selective agonists. [Related pubchem assays: 1297, 1032 ]; format: functional
[4] = molecular target: T1, Aminopeptidase N (Plasmodium falciparum FcB1/Columbia, UniProt O96935); experiment: P. falciparum M1AAP inhibitors, biochemical, fluorogenic H-Leu-NHMec substrate, 1536-well (AID 1445); parameters: species or system Plasmodium falciparum 3D7, 3D7
T1 sequence (O96935 whole entry): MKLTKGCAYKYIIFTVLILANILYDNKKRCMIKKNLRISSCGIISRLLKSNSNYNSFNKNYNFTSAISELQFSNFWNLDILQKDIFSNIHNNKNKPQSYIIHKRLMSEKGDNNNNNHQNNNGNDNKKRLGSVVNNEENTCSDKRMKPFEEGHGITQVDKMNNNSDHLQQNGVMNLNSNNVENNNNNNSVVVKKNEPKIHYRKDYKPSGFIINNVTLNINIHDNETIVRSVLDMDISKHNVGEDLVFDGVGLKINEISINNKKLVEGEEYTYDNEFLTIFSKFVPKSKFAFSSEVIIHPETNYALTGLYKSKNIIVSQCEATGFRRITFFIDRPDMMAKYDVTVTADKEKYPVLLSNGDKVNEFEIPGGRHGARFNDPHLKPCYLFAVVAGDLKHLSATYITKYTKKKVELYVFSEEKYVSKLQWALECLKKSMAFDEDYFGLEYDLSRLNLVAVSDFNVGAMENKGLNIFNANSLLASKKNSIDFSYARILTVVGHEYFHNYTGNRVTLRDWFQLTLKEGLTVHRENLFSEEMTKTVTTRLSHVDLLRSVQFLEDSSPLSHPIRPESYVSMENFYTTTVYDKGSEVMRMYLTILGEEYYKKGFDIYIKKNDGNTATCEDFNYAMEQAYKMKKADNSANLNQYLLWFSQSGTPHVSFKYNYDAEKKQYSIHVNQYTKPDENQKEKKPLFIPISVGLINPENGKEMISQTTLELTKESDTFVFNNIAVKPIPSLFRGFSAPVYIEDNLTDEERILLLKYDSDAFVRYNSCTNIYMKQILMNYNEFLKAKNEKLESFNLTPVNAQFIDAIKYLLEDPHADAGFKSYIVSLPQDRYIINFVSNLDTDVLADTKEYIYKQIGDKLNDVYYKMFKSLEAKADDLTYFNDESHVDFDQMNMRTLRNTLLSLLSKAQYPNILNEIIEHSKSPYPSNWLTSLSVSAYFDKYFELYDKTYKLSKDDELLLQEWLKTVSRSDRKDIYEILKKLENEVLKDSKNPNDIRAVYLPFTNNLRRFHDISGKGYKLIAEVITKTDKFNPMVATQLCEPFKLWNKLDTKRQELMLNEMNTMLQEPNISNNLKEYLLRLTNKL

[5] = molecular target: Large T antigen (Simian virus 40, UniProt P03070); format: functional, Betapolyomavirus macacae;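 further: Confirmatory-stage PubChem screen for compounds that inhibit SV40 T antigen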
Chain of Large T antigen (P03070 whole entry): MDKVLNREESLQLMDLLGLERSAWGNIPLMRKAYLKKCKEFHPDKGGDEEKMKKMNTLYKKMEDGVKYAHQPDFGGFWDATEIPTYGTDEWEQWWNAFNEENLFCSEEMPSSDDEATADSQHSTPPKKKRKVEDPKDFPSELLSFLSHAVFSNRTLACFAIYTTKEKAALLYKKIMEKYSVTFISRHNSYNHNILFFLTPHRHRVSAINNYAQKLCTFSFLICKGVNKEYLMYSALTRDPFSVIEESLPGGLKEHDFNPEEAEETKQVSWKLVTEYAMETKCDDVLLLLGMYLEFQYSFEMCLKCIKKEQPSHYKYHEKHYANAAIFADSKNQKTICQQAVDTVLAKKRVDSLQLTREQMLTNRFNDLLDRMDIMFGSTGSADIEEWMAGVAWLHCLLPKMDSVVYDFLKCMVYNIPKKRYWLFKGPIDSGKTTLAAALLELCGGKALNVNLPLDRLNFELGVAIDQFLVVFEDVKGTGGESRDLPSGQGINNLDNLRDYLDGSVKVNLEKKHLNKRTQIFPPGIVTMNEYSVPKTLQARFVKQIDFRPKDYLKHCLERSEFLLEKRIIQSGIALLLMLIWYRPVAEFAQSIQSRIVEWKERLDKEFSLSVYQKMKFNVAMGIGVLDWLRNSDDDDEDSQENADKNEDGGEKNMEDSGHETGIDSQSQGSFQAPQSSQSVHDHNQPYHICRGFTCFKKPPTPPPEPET

[6] = HeLa cell cytotoxicity, dose response, cytotoxicity control for MgcRacGAP inhibitor project (AID 624300); format: functional
[7] = molecular target: T2, Rac GTPase-activating protein 1 (Homo sapiens, UniProt Q9H0H5); experiment: MgcRacGAP GTPase-activating activity inhibitors, confirmation, biochemical, ADP Hunter fluorescence, primary and confirmatory (AID 624330); format: functional
T2 sequence (Q9H0H5 whole entry): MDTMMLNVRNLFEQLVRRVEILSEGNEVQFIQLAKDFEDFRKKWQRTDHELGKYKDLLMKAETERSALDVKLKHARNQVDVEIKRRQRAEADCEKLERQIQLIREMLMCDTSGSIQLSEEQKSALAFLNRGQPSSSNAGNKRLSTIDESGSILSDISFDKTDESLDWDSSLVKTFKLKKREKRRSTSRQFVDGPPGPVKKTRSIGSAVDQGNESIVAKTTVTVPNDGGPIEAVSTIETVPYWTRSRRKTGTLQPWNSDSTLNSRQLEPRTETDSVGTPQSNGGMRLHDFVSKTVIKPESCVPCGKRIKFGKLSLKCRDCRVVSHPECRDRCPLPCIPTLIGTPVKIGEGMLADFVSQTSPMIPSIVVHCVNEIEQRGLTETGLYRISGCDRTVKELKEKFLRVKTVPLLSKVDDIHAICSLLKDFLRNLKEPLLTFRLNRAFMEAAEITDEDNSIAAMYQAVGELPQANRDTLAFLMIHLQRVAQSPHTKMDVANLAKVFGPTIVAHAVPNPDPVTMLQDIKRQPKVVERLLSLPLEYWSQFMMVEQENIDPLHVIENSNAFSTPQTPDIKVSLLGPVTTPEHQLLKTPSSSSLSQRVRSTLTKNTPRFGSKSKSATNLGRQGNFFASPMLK

[8] = molecular target: T3, Calpain-2 catalytic subunit (Sus scrofa, UniProt P43367); experiment: pig calpain II inhibitor potency, dose response, biochemical, fluorogenic peptide substrate (AID 1420); format: functional
T3 sequence (P43367 whole entry): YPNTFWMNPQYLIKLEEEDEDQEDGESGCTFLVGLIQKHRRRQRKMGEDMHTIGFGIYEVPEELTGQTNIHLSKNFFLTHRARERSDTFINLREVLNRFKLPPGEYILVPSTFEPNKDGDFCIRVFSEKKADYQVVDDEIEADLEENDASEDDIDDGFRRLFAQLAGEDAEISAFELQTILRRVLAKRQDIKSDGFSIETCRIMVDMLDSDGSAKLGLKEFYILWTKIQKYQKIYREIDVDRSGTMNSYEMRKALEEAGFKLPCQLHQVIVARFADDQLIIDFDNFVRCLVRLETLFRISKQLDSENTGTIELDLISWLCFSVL

[9] = inhibitors of intracellular T. cruzi replication, confirmation, NIH3T3 host cells, beta-gal luminescence (AID 2044); format: functional, cell-based;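 further: intracellular parasites grown in NIH/3T3 mouse fibroblasts as host cells; luminescent beta-galactosidase reporter signal from transgenic T. cruzi replicating inside host cells; inhibitors lower the luminescence signal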
[10] = cytotoxicity toward NIH3T3 fibroblasts, dose response, counter-screen, cell-based, ATP luminescence, mouse fibroblasts (AID 2010); format: functional;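 further: cells exposed to compound for about 90 hours before reading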
[11] = A Cell Based Secondary Assay To Explore Cytotoxicity of Compounds that Sensitize Mycobacterium Tuberculosis to Beta-Lactam Antibiotics.; format: functional
[12] = molecular target: Cytochrome P450 2C19 (Homo sapiens, UniProt P33261); experiment: Cytochrome panel assay with activity outcomes. Panel member name: p450-cyp2c19 Compounds with AC50 equal or less than 10 uM are considered active; format: functional; settings: read-out: AC50
Chain of Cytochrome P450 2C19 (P33261 whole entry): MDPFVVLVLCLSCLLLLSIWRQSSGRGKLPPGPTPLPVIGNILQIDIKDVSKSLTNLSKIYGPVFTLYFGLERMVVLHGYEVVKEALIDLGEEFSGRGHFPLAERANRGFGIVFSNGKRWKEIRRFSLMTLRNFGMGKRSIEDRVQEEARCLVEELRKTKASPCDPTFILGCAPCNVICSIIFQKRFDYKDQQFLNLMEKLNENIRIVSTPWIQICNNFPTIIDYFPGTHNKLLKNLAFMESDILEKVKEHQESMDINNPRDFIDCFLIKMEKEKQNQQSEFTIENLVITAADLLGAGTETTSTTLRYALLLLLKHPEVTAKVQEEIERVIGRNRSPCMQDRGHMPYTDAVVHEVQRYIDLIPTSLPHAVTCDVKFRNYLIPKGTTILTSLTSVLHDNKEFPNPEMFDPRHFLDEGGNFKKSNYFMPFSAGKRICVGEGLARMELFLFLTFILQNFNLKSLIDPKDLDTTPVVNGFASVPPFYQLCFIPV

[13] = molecular target: Cytochrome P450 2D6 (Homo sapiens, UniProt P10635);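 further: CYP2D6 member of a cytochrome P450 panel assay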
[14] = P. falciparum late gametocyte killing, dose response, luminescence (AID 1117278); format: functional, cell-based;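 further: gametocytes exposed to compound for 24 hours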
[15] = Jurkat T cell cytotoxicity, dose response, cytotoxicity control for P. falciparum gametocyte viability project, luminescence (AID 1117277); format: functional, cell-based;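 further: potency reflects loss of cellular ATP meaning fewer viable cells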
[16] = A549 cell cytotoxicity, dose response, cytotoxicity control, plate reader, cherry-pick, antagonist series (AID 743412); format: functional, cell-based
[17] = HepG2 cell cytotoxicity, dose response, cytotoxicity control, plate reader, cherry-pick, antagonist series (AID 743416); format: functional, cell-based
[18] = LGR2 antagonists, dose response, cell-based, HEK293, CRE-luciferase reporter, cherry pick, set 2 (AID 743343); format: functional;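 further: transfected cells were stimulated with diluted bursicon conditioned medium after compound addition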
[19] = MC4R antagonists, dose response, counter-screen for LGR2 antagonist project, cell-based, plate reader, cherry pick (AID 743444); format: functional;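 further: transfected HEK 293 cells stimulated with alpha-MSH peptide; potency of inhibitors of the alpha-MSH evoked signal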
[20] = HEK293 cell cytotoxicity, dose response, cytotoxicity control, plate reader, cherry-picked samples (AID 743446); format: functional, cell-based
[21] = test system: HeLa; experiment: HeLa cell cytotoxicity, dose response, cytotoxicity control, 24 h, cherry-picked samples (AID 504726); format: functional, cell-based; settings: Homo sapiens;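 further: potency for cytotoxicity as loss of luminescence signal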

## COc1ccccc1OCC(=O)Nc1nnc(-c2ccco2)s1
[1]
  EC50: 42.4 µM (inactive)
[2]
  EC50: > 79.4 µM (not active)
[3]
  EC50: 32.1 µM (not active)

## COc1cc(/C=N/N2C(=O)CSC2=S)cc(Br)c1O
[4]
  IC50: 107 µM (active)
[5]
  IC50: 12.8 µM (active)

## Cc1cc(Cl)cc(C)c1OCCOCCNCc1ccccc1
[6]
  CC50: 100 µM (active)
[7]
  IC50: 128 µM (active)

## O=C1NC(=O)N(Cc2ccc(F)cc2)C(=O)/C1=C\c1ccoc1
[5]
  IC50: 56.4 µM (active)

## CN(Cc1nc(-c2cnccn2)no1)Cc1[nH]nc2c1CCCC2
[8]
  IC50: 7.73 µM (not active)

## CCS(=O)(=O)NCC(c1cccnc1)N1CCN(c2ccc(OC)cc2)CC1 (configuration not stated)
[9]
  EC50: 0.916 µM (active)
[8]
  IC50: 24.7 µM (not active)
[10]
  EC50: 22 µM (active)

## Cc1[nH]c2c(C)cccc2c1CCNC(=O)c1ccc2c(c1[N+](=O)[O-])C(=O)c1ccccc1C2=O
[11]
  CC50: 17.2 µM (active)
[12]
  AC50: 0.398 µM (inconclusive)
[13]
  AC50: 2 µM (inconclusive)

## CCc1nc(C)ccc1OC(=O)C12CC3CC(CC(C3)C1)C2
[8]
  IC50: 8.73 µM (not active)

## Fc1ccccc1CSc1ncnc2c1oc1ccccc12
[1]
  EC50: 44.1 µM (inactive)
[2]
  EC50: > 79.4 µM (not active)
[3]
  EC50: 20 µM (not active)

## Cc1ccccc1S(=O)(=O)Nc1nc2ccccc2nc1N1CCOCC1
[1]
  EC50: 10.1 µM (inactive)
[2]
  EC50: > 79.4 µM (not active)
[3]
  EC50: 11.8 µM (not active)

## COc1ccccc1C1CC(c2ccccc2)=NN1C(S)=Nc1ccccc1 (configuration not stated)
[1]
  EC50: 9.45 µM (active)
[2]
  EC50: 80.4 µM (not active)
[3]
  EC50: 10.6 µM (not active)

## Cc1cc(C(=O)NCc2cccnc2)no1
[14]
  IC50: > 109 µM (inactive)
[15]
  IC50: > 83.3 µM (inactive)

## COc1ccc(C(=O)Nc2nc3ccccc3[nH]2)cc1
[16]
  AC50: 34.6 µM (active)
[17]
  AC50: > 52 µM (inactive)
[18]
  AC50: 2.45 µM (active)
[19]
  AC50: 2.84 µM (active)
[20]
  AC50: > 52 µM (inactive)

## N#C/C(=C\c1ccc(-c2ccccc2[N+](=O)[O-])o1)C(N)=O
[21]
  AC50: 83.5 µM (active)

## O=C(/C=C/c1ccc2c(c1)OCO2)Nc1nc2ccccc2s1
[11]
  CC50: > 40 µM (active)

## Nc1ccc(Cn2ccc3c4c(N)nc(N)nc4ccc32)cc1
[6]
  CC50: 49.5 µM (active)
[7]
  IC50: 77 µM (active)

## Oc1nc(-c2ccccc2Cl)nc2c1sc(=S)n2-c1ccccc1
[8]
  IC50: 41.7 µM (not active)
